Test results: ChEMBL document CHEMBL5321209, “Design, synthesis of novel benzimidazole derivatives as ENL inhibitors suppressing leukemia cells viability via downregulating the expression of MYC” (Eur J Med Chem, 2023)
pIC50, pKd: −log10 of the molar value.

Experiments:
[1] = molecular target: T1, Protein ENL (Homo sapiens) (UniProt Q03111); details: dose 111.0 nM, time 45.0 min
T1 sequence (whole entry): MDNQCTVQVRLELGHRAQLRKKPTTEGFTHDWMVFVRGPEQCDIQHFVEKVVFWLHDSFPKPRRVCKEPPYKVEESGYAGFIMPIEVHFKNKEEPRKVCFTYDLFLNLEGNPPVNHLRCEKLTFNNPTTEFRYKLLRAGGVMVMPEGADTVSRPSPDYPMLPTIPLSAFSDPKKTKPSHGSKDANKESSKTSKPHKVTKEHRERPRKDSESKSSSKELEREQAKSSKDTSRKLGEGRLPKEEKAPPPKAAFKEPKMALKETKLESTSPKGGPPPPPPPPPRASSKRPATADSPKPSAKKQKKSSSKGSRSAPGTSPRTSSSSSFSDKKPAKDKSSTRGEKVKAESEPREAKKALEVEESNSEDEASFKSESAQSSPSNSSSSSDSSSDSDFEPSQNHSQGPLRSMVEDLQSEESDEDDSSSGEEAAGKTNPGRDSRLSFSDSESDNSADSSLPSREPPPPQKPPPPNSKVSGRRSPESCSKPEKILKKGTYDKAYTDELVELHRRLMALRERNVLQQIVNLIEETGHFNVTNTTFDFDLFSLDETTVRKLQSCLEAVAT

[2] = molecular target: T1, Protein ENL (Homo sapiens); details: dose 333.0 nM, time 45.0 min
Protein ENL [3] = molecular target: T2, Protein ENL (Homo sapiens, UniProt Q03111); assay: Inhibition of C-terminal 6xHis-tagged ENL YEATS domain (1 to 148 residues) (unknown origin) expressed in Escherichia coli BL21(DE3) cells using biotin-H3K27ace as substrate incubated for 45 mins by alpha screen assay
T2 sequence (Q03111 whole entry): T1 sequence (whole entry)

Protein ENL [4] = molecular target: T2, Protein ENL; assay: Inhibition of recombinantC-terminal 6xHis-tagged ENL YEATS domain (1 to 148 residues) (unknown origin) expressed in Escherichia coli BL21(DE3) cells using H3(13-32)K27cr as substrate by FRET assay
Protein ENL [5] = molecular target: T2, Protein ENL; assay: Binding affinity toC-terminal 6xHis-tagged ENL YEATS domain (1 to 148 residues) (unknown origin) assessed as dissociation constant by BLI assay
[6] = Tmax in BALB/c mouse at 30 mg/kg, po measured after 0.5 to 24 hrs by LC-MS/MS assay; format: ADME, organism-based; details: in vivo, time 0.5-24 hrs
[7] = MRT (0 to infinity) in BALB/c mouse at 30 mg/kg, po measured after 0.5 to 24 hrs by LC-MS/MS assay; format: ADME, organism-based; details: in vivo, time 0.5-24 hrs
MOLM-13 = assay: Antiproliferative activity against human MOLM-13 cells assessed as inhibition of cell growth measured after 72 hrs by Cell Titer-Glo luminescent assay; format: functional, cell-based; details: MOLM-13, 72 h
[8] = molecular target: T1, Protein ENL (Homo sapiens); details: dose 50.0 µM
[9] = molecular target: T1, Protein ENL (Homo sapiens); details: dose 6.3 µM
Description: Binding affinity to C-terminal 6xHis-tagged ENL YEATS domain (1 to 148 residues) (unknown origin) expressed in Escherichia coli BL21(DE3) cells assessed as thermal stability by measuring change in melting temperature at 6.3 uM by SYPRO dye-based thermal shift assay

[10] = Cmax in BALB/c mouse at 30 mg/kg, po measured after 0.5 to 24 hrs by LC-MS/MS assay; format: ADME, organism-based; parameters: dose 30 mg/kg, time 0.5-24 hrs, route po; details: in vivo
[11] = AUC (0 to infinity) in BALB/c mouse at 30 mg/kg, po measured after 0.5 to 24 hrs by LC-MS/MS assay; format: ADME, organism-based; parameters: time lower 0.5 hrs, dose 30 mg/kg, time upper 24 hrs, route po; details: in vivo
[12] = molecular target: T1, Protein ENL (Homo sapiens); details: dose 25.0 µM
MV4-11 = assay: cells; details: Homo sapiens, MV4-11, 72 h
Description: Antiproliferative activity against human MV4-11 cells assessed as inhibition of cell growth measured after 72 hrs by Cell Titer-Glo luminescent assay

[13] = AUC (0 to t) in BALB/c mouse at 30 mg/kg, po measured after 0.5 to 24 hrs by LC-MS/MS assay; format: ADME, organism-based; parameters: dose 30 mg/kg, time 0.5-24 hrs, route po; details: in vivo
[14] = Half life in BALB/c mouse at 30 mg/kg, po measured after 0.5 to 24 hrs by LC-MS/MS assay; format: ADME, organism-based; details: in vivo, time 0.5-24 hrs
[15] = molecular target: T1, Protein ENL (Homo sapiens); details: dose 12.5 µM
Description: Binding affinity to C-terminal 6xHis-tagged ENL YEATS domain (1 to 148 residues) (unknown origin) expressed in Escherichia coli BL21(DE3) cells assessed as thermal stability by measuring change in melting temperature at 12.5 uM by SYPRO dye-based thermal shift assay

| SMILES | inhibition [1] | inhibition [2] | pIC50 (Protein ENL [3]) | other results |
| --- | --- | --- | --- | --- |
| O=C(/C=C/c1ccc(-n2ccnc2)cc1)N1CCN(C(=O)c2ccco2)CC1 |  |  |  | pIC50 (Protein ENL [4]): 4.72; pKd (Protein ENL [5]): 4.85 |
| C[C@H]1CCCN1Cc1nc2cc(NC(=O)c3ccc4c(cnn4CCNC(=O)Nc4cccc(F)c4)c3)ccc2[nH]1 | 67.6% | 97.8% | 7.34 |  |
| C[C@H]1CCCN1Cc1nc2cc(NC(=O)c3ccc4c(cnn4C)c3)ccc2[nH]1 | 99.8% | 99.7% |  | Tmax [6]: 30 min; MRT inf [7]: 60 min; pIC50 (MOLM-13): 4.13; ΔTm [8]: 4.3 °C; ΔTm [9]: 1.4 °C; Cmax [10]: 33.6 ng/mL; AUC(0-inf) [11]: 61 ng·h/mL; ΔTm [12]: 3.1 °C; pIC50 (MV4-11): 4.46; AUC(0-t) [13]: 59.8 ng·h/mL; half-life [14]: 30 min; ΔTm [15]: 2.2 °C |
| C[C@H]1CCCN1Cc1nc2cc(NC(=O)c3ccc4c5ccccc5c(=O)n(C)c4c3)ccc2[nH]1 | 99.2% | 100% | 7.50 |  |
| Cc1nnc2ccc(C(=O)Nc3ccc4[nH]c(CN5CCC[C@@H]5C)nc4c3)cn12 | 57% | 84.5% | 6.57 |  |
| Cc1ccccc1C(=O)NCCn1ncc2cc(C(=O)Nc3ccc4[nH]c(CN5CCC[C@@H]5C)nc4c3)ccc21 | 68.4% | 96.1% | 7.45 |  |
| CCCCn1ncc2cc(C(=O)Nc3ccc4[nH]c(CN5CCC[C@@H]5C)nc4c3)ccc21 | 98% | 100% | 7.77 |  |
| C[C@H]1CCCN1Cc1nc2cc(NC(=O)c3ccc4nn(C5CCCC5)cc4c3)ccc2[nH]1 | 51% | 96.1% | 7.15 |  |
| CCCCn1cc2cc(C(=O)Nc3ccc4[nH]c(CN5CCC[C@@H]5C)nc4c3)ccc2n1 | 98.4% | 100% | 7.45 |  |

Continued, in another order:

| inhibition [1] | inhibition [2] | pIC50 (Protein ENL [3]) | SMILES | other results |
| --- | --- | --- | --- | --- |
| 84.6% | 99.3% | 7.49 | C[C@H]1CCCN1Cc1nc2cc(NC(=O)c3ccc4c(cnn4CCN4CC(O)C(O)C4C(O)CO)c3)ccc2[nH]1 (some centres not stated) |  |
| 87.3% | 99.3% | 7.31 | Cc1noc2ccc(C(=O)Nc3ccc4[nH]c(CN5CCC[C@@H]5C)nc4c3)cc12 |  |
| 90.8% | 99.2% | 7.66 | C[C@H]1CCCN1Cc1nc2cc(NC(=O)c3ccc4c(c3)c3cc(F)ccc3c(=O)n4C)ccc2[nH]1 |  |
| 63.2% | 95.6% | 7.33 | Cc1cccc2c(=O)n(C)c3ccc(C(=O)Nc4ccc5[nH]c(CN6CCC[C@@H]6C)nc5c4)cc3c12 |  |
| 89% | 99.6% | 7.25 | C[C@H]1CCCN1Cc1nc2cc(NC(=O)c3ccc4c(cnn4CCN4CC5OC(C)(C)OC5C4C4COC(C)(C)O4)c3)ccc2[nH]1 (some centres not stated) |  |
